{
  "source": "patent US20120010148A1",
  "about": "“COMBINATION THERAPIES USING NAP” (ALLON THERAPEUTICS INC., priority 2008, published 2012)",
  "key": {"STOP+/− male mice": {"system": "STOP+/− male mice", "test": "Mortality under chronic clozapine with or without intranasal NAP", "assay_type": "in vivo, mouse", "conditions": "clozapine 10 mg/kg IP daily, n=4", "procedure": "STOP+/− male mice (6 months old in average, n=4) received daily doses of 10 mg/kg intraperitoneal injection (IP) of clozapine (5 days a week), for the duration of the experiment (5 weeks). Clozapine (10 mg/kg) was solubilized under acidic conditions (pH ˜2.0 with HCl), and the solutions titrated back to ˜pH 7.4 with NaOH. In addition, these mice received daily intranasal vehicle solution that included the following ingredients (per milliliter): 7.5 mg of NaCl, 1.7 mg of citric acid monohydrate, 3 mg of disodium phosphate dihydrate, and 0.2 mg of benzalkonium chloride solution (50%) (Alcalay et al., Neurosci Lett 361, 128-131, 2004).\nA combination of clozapine with NAP experiment included an additional four mice (6 months old in average) that were injected with clozapine and administered with NAP intranasally in the vehicle delineated above (Alcalay et al., Neurosci Lett 361, 128-131, 2004). NAP or vehicle solution was administered daily to mice hand-held in a semi-supine position with nostrils facing the investigator. A pipette tip was used to administer 2.5 μl/nostril. The mouse was hand-held until the solution was totally absorbed (˜10 s).\nThe experiment continued for 5 weeks."}, "[1]": {"system": "Human SH-SY5Y neuroblastoma", "test": "Clozapine-induced cell death in SH-SY5Y cells, MTS assay", "assay_type": "cell-based", "conditions": "clozapine 20 μg/ml, 24 hours, FIG. 1", "from_the_text": "Clozapine, a widely used anti psychotic drug may be associated with increased cell mortality. It was not known, however, whether NAP ([…], SEQ ID NO:2) treatment would inhibit clozapine associated neuronal death. To address this question and validate the efficiency of using a NAP-clozapine combination drug candidate, an experimental test system in cell culture was established (Heiser et al., Journal of Psychopharmacology 21(8):851-856 (2007)). Human SH-SY5Y neuroblastoma supplemented with 15% fetal calf serum (FCS) (Beit-Haemek, Israel), 1% penicillin-streptomycin, and 1% glutamine were incubated in a 5% CO2 atmosphere. Thirty-six thousand cells/well (in a 96 well plates) were plated 24 hours prior to the clozapine or NAP treatment. Clozapine (CLZ) was obtained from Sigma Chemicals (Sigma, Israel). Thirty-six thousand cells per well (in at least 6 replicate wells) were exposed to clozapine (CLZ, 20 μg/ml) or clozapine (CLZ, 20 μg/ml)+NAP or NAP alone (10^−15M-10^−10 M) for 24 hours at 37° C. Drug and control solutions were dissolved in ethanol. Measurement of metabolic activity and survival was determined by non-radioactive cell proliferation assay (MTS) (Promega, USA) and evaluated by an ELISA-reader at 490 nm wavelength."}, "STOP−/− mice": {"system": "STOP−/− mice", "conditions": "STOP−/− schizophrenia model; cited from earlier work"}, "[2]": {"system": "neurons of the central nervous system", "conditions": "in vitro assays and in vivo disease models; cited from earlier work"}, "MS": {"system": "MS", "conditions": "daily subcutaneous injections, 20 mg/injection; cited from earlier work"}},
  "note": "Ends that are not written are not given here.",
  "data": [
    {"compound": "CN1CCN(C2=Nc3cc(Cl)ccc3Nc3ccccc32)CC1", "note": "[clozapine, Clozapine]", "values": [
      {"measurement": "death", "setting": "STOP+/− male mice; after 2.5 weeks of treatment", "result": 50, "unit": "%"},
      {"measurement": "death (cumulative)", "setting": "STOP+/− male mice; at ~4.5 weeks", "result": 75, "unit": "%"},
      {"measurement": "cell death", "setting": "[1]", "result": "about 60%"}
    ]},
    {"compound": "C/C1=C/C[C@@H](/C(C)=C/c2csc(C)n2)OC(=O)C[C@H](O)C(C)(C)C(=O)[C@H](C)[C@@H](O)[C@@H](C)CCC1", "note": "[epothilone D]", "values": [
      {"measurement": "synaptic function and behavior", "setting": "STOP−/− mice", "result": "ameliorates synaptic function and behavior"}
    ]},
    {"compound": "SALLRSIPA", "values": [
      {"measurement": "survival of neurons in response to various insults", "setting": "[2]", "result": "keep neurons of the central nervous system alive"}
    ]},
    {"compound": "glatiramer acetate", "values": [
      {"measurement": "relapse rates, progression of disability, new MRI lesions", "setting": "MS", "result": "reduce relapse rates, progression of disability, appearance of new lesions"}
    ]}
  ]
}
